Tested on: MM.1S cells
Test: Inhibitory effect on the proliferation of MM.1S, MTS cell viability test
Type: cell-based
Details: Homo sapiens, MM1.S, 168 h, multiple myeloma MM.1S cells, 7 days incubation, read-out: Tumor cell inhibitory activity
Experimental: Method of tumor cell proliferation inhibition test: the inventors tested all the example compounds on hematologic tumor cells, multiple myeloma MMTs cell line and acute leukemia cell MV-4-11 cell line of some examples. The activity test method and results are as follows.
1. The Compound's Inhibitory Effect on the Proliferation of MM.1S, MTS Cell Viability Test:
MM.1S cells were cultured and collected with 1640 plus 10% fetal bovine serum. The cell concentration was diluted according to 7 days, and 180 ul cell suspension was added to each well of the 96-well cell plate to 20,000 cells. 20 ul of DMSO with a final concentration of 0.2% was added to the control wells. The compound was 5-fold diluted—from the 10 mM stock solution, and 20 ul was also added to each compound cell well (the final concentration of DMSO was 0.2%). The cells were placed in a 37° C., 5% CO2 incubator to incubate for 7 days. After the reaction solution was prepared according to the MTS kit (Promega, G5430), 20 μL was added to each well and incubated in a 37° C., 5% CO2 incubator for 3-4 h. Absorbance value at 490 nm was read with a microtiter plate, and 690 nm absorbance value was used as the background value. OD490-OD690 was used as the final initial data. The formula for calculating the inhibition rate of the compound is: inhibition rate=(ODDMSO-ODcompound)/(ODDMSO-Oblank)×100%. The compound's proliferation inhibition IC50 was fitted by Graph Pad Prism 5.0. The experiment was repeated three times, and the average and standard deviation was calculated according to the three parallel experiments.
Cell viability test results: **** represents cell viability IC50>20 μM, […] represents cell viability 1 μM<IC50<20 μM, ** represents cell viability 100 nM<IC50<1 μM, * represents cell viability IC50<100 nM.

Row | SMILES | IC50
1 | N#Cc1ccc(N2CCN(CCCCc3cccc4c3CN(C3CCC(=O)NC3=O)C4=O)CC2)cc1 (stereo not drawn) [Example 36, 4-(4-(4-(2-(2,6-dioxopiperidine-3-)-1-oxoisoindoline-4-)butyl)piperazine-1-)benzonitrile] | < 100 nM
2 | O=C1CCC(N2Cc3c(CCCCN4CCN(c5ccccc5[N+](=O)[O-])CC4)cccc3C2=O)C(=O)N1 (stereo not drawn) [Example 216, 3-(4-(4-(4-(2-nitrophenyl)piperazine-1-yl)butyl)-1-oxoisoindoline-2-yl) piperidine-2,6-dione] | < 100 nM
3 | O=C1CCC(N2Cc3c(CCCCCN4CCN(c5ccccc5)CC4)cccc3C2=O)C(=O)N1 (stereo not drawn) [Example 18, 3-(1-oxo-4-(5-(4-phenylpiperazine-1-)pentyl)indoline-2-)piperidine-2,6-dione] | < 100 nM
4 | N[C@@H](CCCc1cccc2c1CN(C1CCC(=O)NC1=O)C2=O)c1nc2ccccc2[nH]1 (stereo partly drawn) [Example 199, 3-(4-((S)-4-amino-4-(1H-benzo(d)imidazole-2-)butyl)-1-oxoisoindoline-2-)piperidine-2,6-dione] | > 20000 nM
5 | O=C1CCC(N2Cc3c(CCCCCCN4CCN(c5cccc(Cl)c5Cl)CC4)cccc3C2=O)C(=O)N1 (stereo not drawn) [Example 35, 3-(4-(6-(4-(2,3-dichlorophenyl)piperazine-1-)hexyl)-1-oxoisoindoline-2-)piperidine-2,6-dione] | < 100 nM
6 | O=C1CCC(N2Cc3c(CCCCCN4CCC5(CC4)C(=O)NCN5c4ccccc4)cccc3C2=O)C(=O)N1 (stereo not drawn) [Example 147, 3-(1-oxo-4-(5-(4-oxo-1-phenyl-1,3,8-triazaspiro[4.5]decane-8-)pentyl)isoindoline-2-)piperidine-2,6-dione] | 100 to 1000 nM
7 | COc1ccccc1N1CCN(CCCCc2cccc3c2CN(C2CCC(=O)NC2=O)C3=O)CC1 (stereo not drawn) [Example 224, 3-(4-(4-(4-(2-methoxyphenyl)piperazine-1-yl)butyl)-1-isoindoline-2-yl)piperidine-2,6-dione] | < 100 nM
8 | O=C1CCC(N2Cc3c(OCCCNC(=O)N4CCN(c5cccc(Cl)c5Cl)CC4)cccc3C2=O)C(=O)N1 (stereo not drawn) [Example 34] | 1000 to 20000 nM
9 | O=C1CCC(N2Cc3c(OCCCCN4CCN(c5cccc(Cl)c5Cl)CC4)cccc3C2=O)C(=O)N1 (stereo not drawn) [Example 240, 3-(4-(4-(4-(2,3-dichlorophenyl)piperazine-1-yl)butoxy)-1-oxoisoindoline-2-yl)piperidine-2,6-dione] | 1000 to 20000 nM
10 | N#CC1(c2ccc(Cl)cc2)CCN(CCCCOc2cccc3c2CN(C2CCC(=O)NC2=O)C3=O)CC1 (stereo not drawn) [Example 77, 4-(4-chlorophenyl)-1-(4-((2-(2,6-dioxopiperidine-3-)-1-oxoisoindoline-4-)oxy)butyl)piperidine-4-carbonitrile] | 100 to 1000 nM
11 | O=C1CCC(N2Cc3c(CCCCCN4CCCc5cc(Cl)ccc54)cccc3C2=O)C(=O)N1 (stereo not drawn) [Example 115] | 100 to 1000 nM
12 | O=C1CCC(N2Cc3c(CCCCN4CCN(c5c(Cl)cccc5Cl)CC4)cccc3C2=O)C(=O)N1 (stereo not drawn) [Example 48, 3-(4-(4-(4-(2,6-dichlorophenyl)piperazine-1-)butyl)-1-oxoisoindoline-2-)piperidine-2,6-dione] | < 100 nM
13 | O=C1CCC(N2Cc3c(CCCCCN4CCC(c5ccccc5)CC4)cccc3C2=O)C(=O)N1 (stereo not drawn) [Example 20, 3-(1-oxo-4-(5-(4-phenylpiperidine-1-)pentyl)indoline-2-)piperidine-2,6-dione] | > 20000 nM
14 | O=C1CCC(N2Cc3c(CCCCN4CCN(c5cccc(Cl)c5Cl)CC4)cccc3C2=O)C(=O)N1 (stereo not drawn) [Example 21, 3-(4-(4-(4-(2,3-dichlorophenyl)piperazine-1-)butyl)-1-oxoisoindoline-2-)piperidine-2,6-dione] | < 100 nM
15 | [2H]c1c([2H])c([2H])c(N2CCN(CCCCCc3cccc4c3CN(C3CCC(=O)NC3=O)C4=O)CC2)c([2H])c1[2H] (stereo not drawn) [Example 210] | 100 to 1000 nM
16 | O=C1CCC(N2Cc3c(CCCCCN4CCN(c5ccc(Cl)cc5Cl)CC4)cccc3C2=O)C(=O)N1 (stereo not drawn) [Example 236, 3-(4-(5-(4-(2,4-dichlorophenyl)piperazine-1-yl)pentyl)-1-oxoisoindoline-2-yl)piperidine-2,6-dione] | 1000 to 20000 nM
17 | Cc1ccc(NC(=O)[C@H](CCCc2cccc3c2CN(C2CCC(=O)NC2=O)C3=O)NC(=O)C(C)C)cc1Cl (stereo partly drawn) [Example 183, (2S)—N-(3-chloro-4-methylphenyl)-5-(2-(2,6-dioxopiperidine-3-)-1-oxoisoindoline-4-)-2-isobutyrylaminopentanamide] | < 100 nM

Row | SMILES | IC50
18 | O=C1CCC(N2Cc3c(CCCCCN4CCC5(CC4)C(=O)Nc4ccc(Cl)cc45)cccc3C2=O)C(=O)N1 (stereo not drawn) [Example 133, 3-(4-(5-(5-chloro-2-oxospiro[indoline-3,4′-piperidine]-1′-)pentyl)-1-oxoisoindoline-2-)piperidine-2,6-dione] | < 100 nM
19 | N#CC1(c2ccc(F)cc2)CCN(CCCOc2cccc3c2CN(C2CCC(=O)NC2=O)C3=O)CC1 (stereo not drawn) [Example 65, 1-(3-((2-(2,6-dioxopiperidine-3-)-1-oxoisoindoline-4-)oxy)propyl)-4-(4-fluorophenyl)piperidine-4-carbonitrile] | 100 to 1000 nM
20 | O=C1CCC(N2Cc3c(CCCCCN4CCN(c5nsc6ccccc56)CC4)cccc3C2=O)C(=O)N1 (stereo not drawn) [Example 232, 3-(4-(5-(4-(benzisothiazol-3-yl)piperazin-1-yl)pentyl)-1-oxoisoindoline-2-yl) piperidine-2,6-dione] | 1000 to 20000 nM
21 | COc1ccc(C2(C#N)CCN(CCCCc3cccc4c3CN(C3CCC(=O)NC3=O)C4=O)CC2)c(OC)c1 (stereo not drawn) [Example 256, 4-(2,4-dimethoxyphenyl)-1-(4-(2-(2,6-dioxopiperidin-3-yl)-1-oxoisoindoline-4-yl)butyl)piperidine-4-carbonitrile] | 1000 to 20000 nM
22 | O=C1CCC(N2Cc3c(CCCCCN4CCC5(C4)C(=O)Nc4ccccc45)cccc3C2=O)C(=O)N1 (stereo not drawn) [Example 139] | 100 to 1000 nM
23 | Cc1ccc2c(c1)C1(CCN(CCCCOc3cccc4c3CN(C3CCC(=O)NC3=O)C4=O)CC1)OC2 (stereo not drawn) [Example 130, 3-(4-(4-(6-methyl-3H-spiro[isobenzofuran-1,4′-piperidine]-1′-)butoxy)-1-oxoisoindoline-2-)piperidine-2,6-dione] | < 100 nM
24 | O=C1CCC(N2Cc3c(CCCCCN4CCOCC4)cccc3C2=O)C(=O)N1 (stereo not drawn) [Example 16, 3-(4-(5-morpholinpentyl)-1-oxoisoindoline-2)-piperidine-2,6-dione] | 100 to 1000 nM
25 | O=C1CCC(N2Cc3c(OCCCCC(=O)N4CCN(c5cccc(Cl)c5Cl)CC4)cccc3C2=O)C(=O)N1 (stereo not drawn) [Example 31, 3-(4-((5-(4-(2,3-dichlorophenyl)piperazine-1-)-5-oxopentyl)oxy)-1-oxopentyl-2-)piperidine-2,6-dione] | < 100 nM
26 | COc1ccccc1N1CCN(CCCCCc2cccc3c2CN(C2CCC(=O)NC2=O)C3=O)CC1 (stereo not drawn) [Example 19, 3-(4-(5-(4-(2-methoxyphenyl)piperazine-1-)pentyl)-1-oxoindoline-2-)piperidine-2,6-dione] | < 100 nM
27 | O=C1CCC(N2Cc3c(CCCCCN4CCC5(CC4)OC(=O)Nc4ccccc45)cccc3C2=O)C(=O)N1 (stereo not drawn) [Example 125, 3-(1-oxo-4-(5-(2-oxo-1,2-dihydrospiro[benzo[d][1,3]oxazine-4,4′-piperidine]-1′-)pentyl)isoindoline-2-)piperidine-2,6-dione] | 100 to 1000 nM
28 | C[C@]1(N2C(=O)c3cccc(OCCCN4CCN(c5cccc(Cl)c5Cl)CC4)c3C2=O)CCC(=O)NC1=O [Example 27, (S)-4-(3-(4-(2,3-dichlorophenyl)piperazine-1-)propoxy)-2-(3-methyl-2,6-dioxopiperidine-3-)isoindoline-1,3-dione] | 1000 to 20000 nM
29 | CC(=O)N[C@@H](CCCc1cccc2c1CN(C1CCC(=O)NC1=O)C2=O)C(=O)Nc1ccccc1-c1cccnc1 (stereo partly drawn) [Example 196, (2S)-2-acetylamino-5-(2-(2,6-dioxopiperidine-3-)-1-oxoisoindoline-4-)-N-(2-(pyridine-3-)phenyl)pentanamide] | 1000 to 20000 nM
30 | O=C1CCC(N2Cc3c(OCCCCN4CCN(c5noc6ccccc56)CC4)cccc3C2=O)C(=O)N1 (stereo not drawn) [Example 242, 3-(4-(4-(4-(benzisoxazole-3-yl)piperazine-1-yl)butoxy)-1-oxoisoindoline-2-yl)piperidine-2,6-dione] | 1000 to 20000 nM
31 | N#CC1(c2c(Cl)cccc2Cl)CCN(CCCCCc2cccc3c2CN(C2CCC(=O)NC2=O)C3=O)CC1 (stereo not drawn) [Example 250, 4-(2,6-dichlorophenyl)-1-(5-(2-(2,6-dioxopiperidin-3-yl)-1-oxoisoindoline-4-yl)pentyl)piperidine-4-carbonitrile] | 100 to 1000 nM
32 | N#Cc1cccc(C2(C#N)CCN(CCCOc3cccc4c3CN(C3CCC(=O)NC3=O)C4=O)CC2)c1 (stereo not drawn) [Example 67, 4-(3-cyanophenyl)-1-(3-((2-(2,6-dioxopiperidine-3-)-1-oxoisoindoline-4-)oxy)propyl)piperidine-4-carbonitrile] | 100 to 1000 nM
33 | CCc1cc(COCCCCOc2cccc3c2CN(C2CCC(=O)NC2=O)C3=O)c2ccccc2n1 (stereo not drawn) [Example 214, 3-(4-(4-((2-ethylquinoline-4-)methoxy)butoxy)-1-oxoisoindoline-2-)piperidine-2,6-dione] | 100 to 1000 nM

Source: patent publication US12459921B2, “Isoindoline compound, preparation method, pharmaceutical composition and use thereof” (SHANGHAI INSTITUTE OF MATERIA MEDICA, CHINESE ACADEMY OF …, priority 2018, dated 2025)
